For one test, the system named is interferon (α). The experiment in a line: Cytokine induction in human cells: interferon (α) by ELISA. The class given is cell-based. The settings on record: Homo sapiens, PBMC, human PBMCs, 18 to 24 hours incubation, ELISA of culture supernatant; read-out: Lowest Effective Concentration (μM) Interferon. (In general: ELISA stands for enzyme-linked immunosorbent assay.)

Test [1] relates to tumor necrosis factor (α). The experiment in a line: Cytokine induction in human cells: tumor necrosis factor (α) by ELISA. Type of test: cell-based. The settings on record: Homo sapiens, PBMC, human PBMCs, 18 to 24 hours incubation, ELISA of culture supernatant; read-out: Lowest Effective Concentration (μM) Tumor Necrosis Factor.

In the case of `CCCCc1nc2c(N)nc3ccccc3c2n1CCCCNS(=O)(=O)c1cc(F)ccc1C` [Example 106], the minimal effective concentration (in the test on interferon (α); in test [1]) was 1 µM each time.
For the compound `CCCCc1nc2c(N)nc3ccccc3c2n1CCCCNS(=O)(=O)c1c(C)c(C)c(C)c(C)c1C` [Example 107], the minimal effective concentration with interferon (α) is 1 µM; in test [1], more than 10 µM.
For `CCOCc1nc2c(N)nc3ccccc3c2n1CCNS(C)(=O)=O` [Example 108], in that order: 0.1 µM and 10 µM.
On the same counts, the results for `CCOCc1nc2c(N)nc3ccccc3c2n1CCNS(=O)(=O)c1cccs1` [Example 109] are 1 µM and 10 µM.
For `CCOCc1nc2c(N)nc3ccccc3c2n1CCNS(=O)(=O)c1cccc2c(N(C)C)cccc12` [Example 110], in that order: 10 µM and more than 10 µM.
With `COCCc1nc2c(N)nc3ccccc3c2n1CCCCNS(C)(=O)=O` [Example 111], the minimal effective concentration with interferon (α) amounted to 0.001 µM; in test [1] it was 10 µM.
On the same counts, the results for `COCCc1nc2c(N)nc3ccccc3c2n1CCCCNS(=O)(=O)c1cccs1` [Example 112] are 0.0001 µM and more than 10 µM.
For `COCCc1nc2c(N)nc3ccccc3c2n1CCCCNS(=O)(=O)Cc1ccccc1` [Example 113], the minimal effective concentration in the test on interferon (α) is 0.0001 µM; in test [1], more than 10 µM.
For `COCCc1nc2c(N)nc3ccccc3c2n1CCCCNS(=O)(=O)c1cccc2c(N(C)C)cccc12` [Example 114], in that order: 0.01 µM and more than 10 µM.
For the compound `CCCS(=O)(=O)NCCCCn1c(CCOC)nc2c(N)nc3ccccc3c21` [Example 116], the results for the minimal effective concentration (in the test on interferon (α); in test [1]) were 0.001 µM and 1 µM, respectively.
Regarding `CCCCS(=O)(=O)NCCCCn1c(CCOC)nc2c(N)nc3ccccc3c21` [Example 117], the minimal effective concentration in the test with interferon (α) worked out at 0.0001 µM; in test [1], 1 µM.
Take `COCCc1nc2c(N)nc3ccccc3c2n1CCCCNS(=O)(=O)c1ccccc1F` [Example 120]: the minimal effective concentration with interferon (α) was determined as 0.0001 µM; in test [1], 1 µM.
For the compound `COCCc1nc2c(N)nc3ccccc3c2n1CCCCNS(=O)(=O)c1ccc(F)cc1` [Example 121], the minimal effective concentration turned out to be 0.0001 µM with interferon (α) and 10 µM in test [1].
For `COCCc1nc2c(N)nc3ccccc3c2n1CCCCNS(=O)(=O)c1cccc(F)c1` [Example 122], in that order: 0.0001 µM and 1 µM.
For `COCCc1nc2c(N)nc3ccccc3c2n1CCCCNS(=O)(=O)c1c(C)noc1C` [Example 123], in that order: 0.0001 µM and 10 µM.
On the same counts, the results for `COCCc1nc2c(N)nc3ccccc3c2n1CCCCNS(=O)(=O)c1ccccc1Cl` [Example 127] are 0.0001 µM and 10 µM.
As to `COCCc1nc2c(N)nc3ccccc3c2n1CCCCNS(=O)(=O)c1ccc(Cl)cc1` [Example 128], the minimal effective concentration with interferon (α) amounted to 0.0001 µM; in test [1], 1 µM.
On the same counts, the results for `COCCc1nc2c(N)nc3ccccc3c2n1CCCCNS(=O)(=O)c1ccc(Cl)s1` [Example 131] are 0.0001 µM and 1 µM.
On the same counts, the results for `COCCc1nc2c(N)nc3ccccc3c2n1CCCCNS(=O)(=O)Cc1ccccc1[N+](=O)[O-]` [Example 138] are 0.0001 µM and 10 µM.
On the same counts, the results for `COCCc1nc2c(N)nc3ccccc3c2n1CCCCNS(=O)(=O)C[C@]12CCC(CC1=O)C2(C)C` [Example 148] are 0.0001 µM and 1 µM.
`COCCc1nc2c(N)nc3ccccc3c2n1CCCCNS(=O)(=O)c1ccc(Br)cc1` [Example 152]: the minimal effective concentration with interferon (α) was determined as 0.0001 µM; in test [1] it was 10 µM.
Take `COCCc1nc2c(N)nc3ccccc3c2n1CCCCNS(=O)(=O)c1ccc(OC(F)(F)F)cc1` [Example 154]: the minimal effective concentration in the test on interferon (α) turned out to be 0.001 µM; in test [1], 10 µM.
On the same counts, the results for `COCCc1nc2c(N)nc3ccccc3c2n1CCCCNS(=O)(=O)c1ccccc1` [Example 158] are 0.0001 µM and 1 µM.
For `COCCc1nc2c(N)nc3ccccc3c2n1CCCCNS(=O)(=O)c1ccc(C)cc1` [Example 159], in that order: 0.0001 µM and 0.1 µM.
`COCCc1nc2c(N)nc3ccccc3c2n1CCCCNS(=O)(=O)c1ccc(C#N)cc1` [Example 160]: the minimal effective concentration in the test on interferon (α) was determined as 0.001 µM; in test [1], 1 µM.
In the case of `COCCc1nc2c(N)nc3ccccc3c2n1CCCCNS(=O)(=O)c1ccc(S(C)(=O)=O)cc1` [Example 161], the minimal effective concentration in the test on interferon (α) came out at 0.01 µM; in test [1], 10 µM.
For `COCCc1nc2c(N)nc3ccccc3c2n1CCCCNS(=O)(=O)c1cccc(Br)c1` [Example 184], in that order: 0.0001 µM and 1 µM.
For the compound `COCCc1nc2c(N)nc3ccccc3c2n1CCCCNS(=O)(=O)C[C@@]12CCC(CC1=O)C2(C)C` [Example 200], the minimal effective concentration is 0.01 µM in the test with interferon (α) and 0.1 µM in test [1].
With `CCCCc1nc2c(N)nc3c(c2n1CCCCNS(C)(=O)=O)CCCC3` [Example 202], the values for the minimal effective concentration (in the test on interferon (α); in test [1]) were 0.0001 µM and 1 µM, respectively.
On the same counts, the results for `CCCCc1nc2c(N)nc3c(c2n1CCCCNS(=O)(=O)C(C)C)CCCC3` [Example 203] are 0.0001 µM and 1 µM.
On the same counts, the results for `CCCCc1nc2c(N)nc3c(c2n1CCCCNS(=O)(=O)c1cccs1)CCCC3` [Example 204] are 0.0001 µM and 1 µM.
For `CCCCc1nc2c(N)nc3c(c2n1CCCCNS(=O)(=O)Cc1ccccc1)CCCC3` [Example 205], in that order: 0.0001 µM and 1 µM.
As for `CCCCc1nc2c(N)nc3c(c2n1CCCCNS(=O)(=O)c1cccc2c(N(C)C)cccc12)CCCC3` [Example 206], the minimal effective concentration was 1 µM with interferon (α) and more than 10 µM in test [1].
For `CCS(=O)(=O)NCCCCn1c(CCOC)nc2c(N)nc3c(c21)CCCC3` [Example 207], in that order: 0.001 µM and 1 µM.
`CCCS(=O)(=O)NCCCCn1c(CCOC)nc2c(N)nc3c(c21)CCCC3` [Example 208]: the minimal effective concentration in the test with interferon (α) worked out at 0.0001 µM; in test [1], 1 µM.
On the same counts, the results for `CCCCS(=O)(=O)NCCCCn1c(CCOC)nc2c(N)nc3c(c21)CCCC3` [Example 209] are 0.0001 µM and 0.1 µM.
For `COCCc1nc2c(N)nc3c(c2n1CCCCNS(=O)(=O)c1ccccc1)CCCC3` [Example 210], in that order: 0.0001 µM and 1 µM.

For the origin of these results see patent US6825350B2, “Sulfonamide and sulfamide substituted imidazoquinolines and methods for the treatment of periodontal disease using these and other immune response modifiers” (3M Innovative Properties Company, priority 1999, dated 2004).
